# Reference: patent publication US20110311562A1, “Glycolipid Mixture with Anti-Inflammatory Activity Obtained from Oscillatoria Planktothrix” (priority 2009, published 2011)
# Biological target: T1, membrane ATP synthase (Homo sapiens, UniProt P06576+P25705+P36542)
# T1 construct: Measurement of the effect of OPFP1 on the production of extracellular ATP in the SH-SY5Y cell line; endogenous in cells; host or cells: SH-SY5Y human neuroblastoma cells
# Assay: Production of extracellular ATP in SH-SY5Y cell line
# Assay type: cell-based
# Settings: after 5′ pre-incubation, OPFP1 mixture 10 μg/ml, piceatannol 4 μM, read-out: maximum inhibition of ATP synthesis
# Method: FIG. 6. Production of extracellular ATP. Measurement of the effect of OPFP1 on the production of extracellular ATP in the SH-SY5Y cell line. (A) analysis of the effects on ATP production at different pre-incubation times; (B) evaluation of the effects elicited by different concentrations of the OPFP1 mixture (results are the mean of three independent experiments).
# The mixture not only binds this enzyme complex but also modulates its activity. As positive control, piceatannol (3,4,3′,5′-tetrahydroxy-trans-stilbene) was used, that is a resveratrol metabolite well-known for its inhibitory activity on the production of extracellular ATP.
compound,measurement,value
"Oc1cc(O)cc(/C=C/c2ccc(O)c(O)c2)c1 [piceatannol, 3,4,3′,5′-tetrahydroxy-trans-stilbene]",inhibition at 4 µM,97%
